Measurements reported in the NIST ThermoML archive (doi:10.1016/j.tca.2011.08.002).
± gives the expanded uncertainty stated by the source.

Legend:
[1] = xn = mol fraction of the nth substance listed; details: 101 kPa, Liquid, Vibrating tube method
[2] = refractive index (Na D-line) (dimensionless); xn = mol fraction of the nth substance listed; details: 101 kPa, Liquid, Standard Abbe refractometry

C1CCC(NC2CCCCC2)CC1 [N-cyclohexylcyclohexanamine] + CCCCO
Details | mass density, [1] [kg/m3] | refractive index, [2]
288.15 K, x2 = 0 | 915.498 ± 0.23 | 1.48636 ± 0.0004
288.15 K, x2 = 0.0512 | 914.315 ± 0.23 | 1.48502 ± 0.0004
288.15 K, x2 = 0.1 | 912.993 ± 0.22 | 1.48368 ± 0.0004
288.15 K, x2 = 0.2005 | 909.753 ± 0.2 | 1.48027 ± 0.00039
288.15 K, x2 = 0.3005 | 905.695 ± 0.19 | 1.47614 ± 0.00039
288.15 K, x2 = 0.4005 | 900.544 ± 0.18 | 1.47121 ± 0.00038
288.15 K, x2 = 0.5 | 893.978 ± 0.17 | 1.46517 ± 0.00038
288.15 K, x2 = 0.6002 | 885.407 ± 0.16 | 1.45768 ± 0.00037
288.15 K, x2 = 0.7002 | 874.118 ± 0.15 | 1.44826 ± 0.00037
288.15 K, x2 = 0.7984 | 859.411 ± 0.15 | 1.43656 ± 0.00037
288.15 K, x2 = 0.8999 | 839.302 ± 0.15 | 1.42104 ± 0.00037
288.15 K, x2 = 0.9493 | 827.33 ± 0.15 | 1.41197 ± 0.00036
293.15 K, x2 = 0 | 911.705 ± 0.23 | 1.48416 ± 0.0004
293.15 K, x2 = 0.0512 | 910.505 ± 0.23 | 1.4828 ± 0.0004
293.15 K, x2 = 0.1 | 909.162 ± 0.22 | 1.48147 ± 0.0004
293.15 K, x2 = 0.2005 | 905.869 ± 0.2 | 1.47804 ± 0.00039
293.15 K, x2 = 0.3005 | 901.749 ± 0.19 | 1.4739 ± 0.00039
293.15 K, x2 = 0.4005 | 896.535 ± 0.18 | 1.46892 ± 0.00038
293.15 K, x2 = 0.5 | 889.912 ± 0.17 | 1.46289 ± 0.00038
293.15 K, x2 = 0.6002 | 881.306 ± 0.16 | 1.45538 ± 0.00038
293.15 K, x2 = 0.7002 | 870.025 ± 0.15 | 1.44587 ± 0.00037
293.15 K, x2 = 0.7984 | 855.383 ± 0.15 | 1.43432 ± 0.00037
293.15 K, x2 = 0.8999 | 835.393 ± 0.15 | 1.4189 ± 0.00037
293.15 K, x2 = 0.9493 | 823.486 ± 0.15 | 1.40987 ± 0.00037
298.15 K, x2 = 0 | 907.923 ± 0.23 | 1.48198 ± 0.0004
298.15 K, x2 = 0.0512 | 906.698 ± 0.23 | 1.4806 ± 0.0004
298.15 K, x2 = 0.1 | 905.333 ± 0.22 | 1.47926 ± 0.0004
298.15 K, x2 = 0.2005 | 901.986 ± 0.2 | 1.47579 ± 0.00039
298.15 K, x2 = 0.3005 | 897.806 ± 0.19 | 1.47165 ± 0.00039
298.15 K, x2 = 0.4005 | 892.53 ± 0.18 | 1.46666 ± 0.00038
298.15 K, x2 = 0.5 | 885.853 ± 0.17 | 1.46059 ± 0.00038
298.15 K, x2 = 0.6002 | 877.207 ± 0.16 | 1.45309 ± 0.00038
298.15 K, x2 = 0.7002 | 865.925 ± 0.16 | 1.44368 ± 0.00037
298.15 K, x2 = 0.7984 | 851.344 ± 0.15 | 1.43208 ± 0.00037
298.15 K, x2 = 0.8999 | 831.466 ± 0.15 | 1.41673 ± 0.00037
298.15 K, x2 = 0.9493 | 819.618 ± 0.15 | 1.40779 ± 0.00036
303.15 K, x2 = 0 | 904.144 ± 0.23 | 1.47978 ± 0.0004
303.15 K, x2 = 0.0512 | 902.899 ± 0.23 | 1.47842 ± 0.0004
303.15 K, x2 = 0.1 | 901.51 ± 0.22 | 1.47704 ± 0.0004
303.15 K, x2 = 0.2005 | 898.104 ± 0.2 | 1.47358 ± 0.00039
303.15 K, x2 = 0.3005 | 893.865 ± 0.19 | 1.46939 ± 0.00039
303.15 K, x2 = 0.4005 | 888.526 ± 0.18 | 1.4644 ± 0.00038
303.15 K, x2 = 0.5 | 881.79 ± 0.17 | 1.45831 ± 0.00038
303.15 K, x2 = 0.6002 | 873.106 ± 0.16 | 1.4508 ± 0.00038
303.15 K, x2 = 0.7002 | 861.822 ± 0.16 | 1.44139 ± 0.00037
303.15 K, x2 = 0.7984 | 847.289 ± 0.15 | 1.42985 ± 0.00037
303.15 K, x2 = 0.8999 | 827.516 ± 0.15 | 1.4146 ± 0.00037
303.15 K, x2 = 0.9493 | 815.728 ± 0.15 | 1.40565 ± 0.00037
308.15 K, x2 = 0 | 900.372 ± 0.23 | 1.47761 ± 0.0004
308.15 K, x2 = 0.0512 | 899.101 ± 0.23 | 1.47623 ± 0.0004
308.15 K, x2 = 0.1 | 897.686 ± 0.22 | 1.47485 ± 0.0004
308.15 K, x2 = 0.2005 | 894.222 ± 0.21 | 1.47136 ± 0.00039
308.15 K, x2 = 0.3005 | 889.919 ± 0.19 | 1.46716 ± 0.00039
308.15 K, x2 = 0.4005 | 884.519 ± 0.18 | 1.46213 ± 0.00038
308.15 K, x2 = 0.5 | 877.726 ± 0.17 | 1.45604 ± 0.00038
308.15 K, x2 = 0.6002 | 868.997 ± 0.16 | 1.44852 ± 0.00038
308.15 K, x2 = 0.7002 | 857.708 ± 0.16 | 1.43914 ± 0.00037
308.15 K, x2 = 0.7984 | 843.219 ± 0.15 | 1.42763 ± 0.00037
308.15 K, x2 = 0.8999 | 823.538 ± 0.15 | 1.41241 ± 0.00037
308.15 K, x2 = 0.9493 | 811.807 ± 0.16 | 1.40352 ± 0.00036
313.15 K, x2 = 0 | 896.608 ± 0.23 | 1.47562 ± 0.0004
313.15 K, x2 = 0.0512 | 895.307 ± 0.23 | 1.47419 ± 0.0004
313.15 K, x2 = 0.1 | 893.863 ± 0.22 | 1.47267 ± 0.0004
313.15 K, x2 = 0.2005 | 890.338 ± 0.21 | 1.4691 ± 0.00039
313.15 K, x2 = 0.3005 | 885.971 ± 0.19 | 1.46487 ± 0.00039
313.15 K, x2 = 0.4005 | 880.507 ± 0.18 | 1.45979 ± 0.00038
313.15 K, x2 = 0.5 | 873.654 ± 0.17 | 1.45368 ± 0.00038
313.15 K, x2 = 0.6002 | 864.881 ± 0.17 | 1.44613 ± 0.00038
313.15 K, x2 = 0.7002 | 853.579 ± 0.16 | 1.43676 ± 0.00037
313.15 K, x2 = 0.7984 | 839.126 ± 0.16 | 1.42522 ± 0.00037
313.15 K, x2 = 0.8999 | 819.533 ± 0.15 | 1.41016 ± 0.00037
313.15 K, x2 = 0.9493 | 807.851 ± 0.16 | 1.40134 ± 0.00036
318.15 K, x2 = 0 | 892.847 ± 0.23 | 1.47347 ± 0.0004
318.15 K, x2 = 0.0512 | 891.512 ± 0.23 | 1.472 ± 0.0004
318.15 K, x2 = 0.1 | 890.04 ± 0.22 | 1.47049 ± 0.0004
318.15 K, x2 = 0.2005 | 886.452 ± 0.21 | 1.46689 ± 0.00039
318.15 K, x2 = 0.3005 | 882.018 ± 0.19 | 1.46265 ± 0.00039
318.15 K, x2 = 0.4005 | 876.487 ± 0.18 | 1.45753 ± 0.00038
318.15 K, x2 = 0.5 | 869.572 ± 0.17 | 1.4514 ± 0.00038
318.15 K, x2 = 0.6002 | 860.75 ± 0.17 | 1.44384 ± 0.00038
318.15 K, x2 = 0.7002 | 849.434 ± 0.16 | 1.43447 ± 0.00037
318.15 K, x2 = 0.7984 | 835.005 ± 0.16 | 1.42299 ± 0.00037
318.15 K, x2 = 0.8999 | 815.488 ± 0.16 | 1.40798 ± 0.00037
318.15 K, x2 = 0.9493 | 803.854 ± 0.16 | 1.39919 ± 0.00036
323.15 K, x2 = 0 | 889.089 ± 0.23 | 1.47134 ± 0.0004
323.15 K, x2 = 0.0512 | 887.718 ± 0.23 | 1.46985 ± 0.0004
323.15 K, x2 = 0.1 | 886.213 ± 0.22 | 1.46835 ± 0.0004
323.15 K, x2 = 0.2005 | 882.559 ± 0.21 | 1.46474 ± 0.00039
323.15 K, x2 = 0.3005 | 878.053 ± 0.2 | 1.46049 ± 0.00039
323.15 K, x2 = 0.4005 | 872.455 ± 0.18 | 1.45537 ± 0.00038
323.15 K, x2 = 0.5 | 865.476 ± 0.18 | 1.4492 ± 0.00038
323.15 K, x2 = 0.6002 | 856.603 ± 0.17 | 1.44162 ± 0.00038
323.15 K, x2 = 0.7002 | 845.267 ± 0.17 | 1.43225 ± 0.00037
323.15 K, x2 = 0.7984 | 830.854 ± 0.16 | 1.42074 ± 0.00037
323.15 K, x2 = 0.8999 | 811.404 ± 0.16 | 1.40571 ± 0.00037
323.15 K, x2 = 0.9493 | 799.814 ± 0.16 | 1.39701 ± 0.00037
